Results: patent US20050244592A1, “Recording paper and image recording method” (FUJI XEROX CO., LTD., priority 2004, published 2005)

Assay: Solubility of the carboxylic acid in pure water
Conditions: maximum dissolution based on 100 g of pure water at 20° C.

A Solubility of 10 g/100 g was found for O=C(O)c1nc(C(=O)O)c(C(=O)O)c(C(=O)O)c1C(=O)O [Pyridine pentacarboxylic acid] in this work.
A Solubility of 7 g/100 g was found for Furan carboxylic acid in this work.
